Assay results taken from US11129897B2, “Fast-acting plant-based medicinal compounds and nutritional supplements” (RECEPTOR HOLDINGS, INC., priority 2016, dated 2021).

Legend:
[1] = versus molecule without SNAC; in words; cited from earlier work
[2] = cited from earlier work
[3] = test system: study participants; test: Onset and duration of action of orally administered Cannabis/SNAC composition (Example 2, 200 mg SNAC); format: in vivo, human; conditions: oral; 200 mg SNAC with Cannabis concentrate (8 mg THC)
Protocol: This study was designed to assess the utility of SNAC in enabling a rapid-acting oral form of Cannabis.
Selection of Participants. Six study participants were recruited to ingest Cannabis compositions and record the onset, duration, and intensity of Cannabis-induced euphoria and/or dysphoria.
(§1) Formulations. The selected Cannabis concentrate is commercially available and was provided to participants in an ethanol solution. The concentrate contains 8 mg THC per dose. It was selected because it contains a high percentage of THC, which provides a noticeable effect on user-reported “euphoria”.
(§2) Methods. For the Control experiment, each participant mixed the Cannabis concentrate with 15 ml (one tablespoon) of aqueous ethanol, and immediately swallowed the mixture.
(§3) For both the Control experiment and the Test experiment, each participant recorded the time of dose administration, the time of onset of euphoria and/or dysphoria, and the observed level of euphoria and/or dysphoria in fifteen minute intervals for five hours following administration of the Cannabis dose. Euphoria and dysphoria were reported using a scale value, in a range from 1-10.

[4] = test system: study participants; test: Onset and duration of action of orally administered Cannabis/SNAC composition at a low SNAC dose (Example 3, 100 mg SNAC); format: in vivo, human; conditions: oral; 100 mg SNAC with Cannabis concentrate (8 mg THC)
Protocol: This study was designed to assess the utility of SNAC in enabling a rapid-acting oral form of Cannabis at a low dose.
Selection of Participants. Three study participants were recruited to ingest Cannabis compositions and record the onset, duration, and intensity of Cannabis-induced euphoria and/or dysphoria.
as §1, §2
as §3, with “1-5.” for “1-10.”

heparin
absorption when co-administered with an N-acylated fatty amino acid (e.g., SNAC) [1]: improved absorption

CCCCCN(C)CCC(O)(P(=O)(O)O)P(=O)(O)O [ibandronate]
absorption when co-administered with an N-acylated fatty amino acid (e.g., SNAC) [1]: improved absorption

rhGH: recombinant human growth hormone
absorption when co-administered with an N-acylated fatty amino acid (e.g., SNAC) [1]: improved absorption

CCCCCc1cc(O)c2c(c1)OC(C)(C)[C@@H]1CCC(C)=C[C@@H]21 [THC, delta-9-tetrahydrocannabinol]
appetite stimulant effect may continue after administration ([2]; after oral administration): ≥ 24 h | duration of action for psychoactive effects ([2]; after oral administration): 4 to 6 h | peak effect (time) ([2]; after oral administration): 2 to 4 h | administered dose that reaches the systemic circulation ([2]; oral, first pass hepatic metabolism and poor aqueous solubility): 10-20%

PTH 1-34: parathyroid hormone 1-34
absorption when co-administered with an N-acylated fatty amino acid (e.g., SNAC) [1]: improved absorption

peptide yy: peptide yy, water-soluble molecule with SNAC-improved absorption
absorption when co-administered with an N-acylated fatty amino acid (e.g., SNAC) [1]: improved absorption

sodium N-[8-(2-hydroxybenzoyl) amino] caprylate [SNAC]
effect of the absorption enhancer on the duration of action of Cannabis [3]: no effect on the duration of action | effect of the absorption enhancer on the duration of action of Cannabis [4]: no effect on the duration of action

MT-II
absorption when co-administered with an N-acylated fatty amino acid (e.g., SNAC) [1]: improved absorption

GLP-1: GLP-1, water-soluble molecule with SNAC-improved absorption
absorption when co-administered with an N-acylated fatty amino acid (e.g., SNAC) [1]: improved absorption

calcitonin: calcitonin, water-soluble molecule with SNAC-improved absorption
absorption when co-administered with an N-acylated fatty amino acid (e.g., SNAC) [1]: improved absorption

vitamin B12
absorption when co-administered with an N-acylated fatty amino acid (e.g., SNAC) [1]: improved absorption
